Reference: publication PMC12175894 (Science Advances, 2025)
“Also recorded” adds a separate entry of the source.

How the values were obtained:
[1] = target: T1, 5-HT1AR wildtype (Homo sapiens, UniProt P08908); assay: GloSensor inhibition of cAMP accumulation in HEK293AΔGs; format: cell-based
T1 construct: host or cells: HEK293T, HEK293A, HEK293AΔGs, HEK293AΔGi/o, HEK293AΔARRB1/B2
T1 sequence (P08908 1-422): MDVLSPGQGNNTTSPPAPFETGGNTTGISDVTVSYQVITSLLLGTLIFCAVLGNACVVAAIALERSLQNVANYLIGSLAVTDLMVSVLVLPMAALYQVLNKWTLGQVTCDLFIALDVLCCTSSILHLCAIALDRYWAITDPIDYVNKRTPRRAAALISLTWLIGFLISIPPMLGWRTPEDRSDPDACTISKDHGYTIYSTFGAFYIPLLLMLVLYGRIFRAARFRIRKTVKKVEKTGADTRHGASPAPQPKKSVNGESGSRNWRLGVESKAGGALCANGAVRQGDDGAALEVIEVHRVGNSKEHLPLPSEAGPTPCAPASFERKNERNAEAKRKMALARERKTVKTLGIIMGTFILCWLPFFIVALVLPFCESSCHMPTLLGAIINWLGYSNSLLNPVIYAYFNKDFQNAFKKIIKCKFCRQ

[2] = target: T1, 5-HT1AR wildtype; assay: GloSensor cAMP accumulation in HEK293AΔGi/o; format: cell-based; conditions: for Emax: read-out: Emax [% ± SEM], cAMP accumulation
[3] = target: T1, 5-HT1AR wildtype; assay: β-arrestin 2 recruitment, enhanced bystander BRET in HEK293T with GRK2; format: cell-based; conditions: for Emax: HEK-293T, read-out: Emax [% ± SEM], β-arrestin 2 recruitment
[4] = target: T2, 5-HT1AR wt (Homo sapiens, UniProt P08908); assay: Radioligand competition, displacement of [3H]WAY100635; format: binding; conditions: fig. S1C, in words
T2 construct: host or cells: HEK293T, transient; membranes
T2 sequence (P08908 1-422): T1 sequence (P08908 1-422)

[5] = target: T3, 5-HT1AR (Homo sapiens, UniProt P08908); assay: BRET-based cAMP assay (CAMYEL biosensor) in CHO-K1 cells; format: cell-based; conditions: inhibition of cAMP accumulation, CAMYEL, fig. S1C, in words
T3 sequence (P08908 1-422): T1 sequence (P08908 1-422)

[6] = tested on: male C56BL/6 mice; assay: 52°C hot plate; format: in vivo, mouse; conditions: wild-type mice, 10 mg/kg
[7] = tested on: 5-HT1AR KO mice; assay: 52°C hot plate in 5-HT1AR KO mice; format: in vivo, mouse; conditions: 10 mg/kg
[8] = Metabolic stability with rat liver microsomes; format: in vitro ADME; conditions: after 1 h incubation
[9] = target: human WT 5-HT1AR with C-terminal ARMS2-PK2 (human) (UniProt P08908); assay: split reporter
[10] = read-out: Emax [% ± SEM], inhibition of cAMP accumulation

Compound: CCN(CC)C(=O)N[C@H]1C=C2c3cccc4[nH]cc(c34)C[C@H]2N(C)C1 [(S)-(-)lisuride, (S)-(−)-lisuride]
- Emax [% ± SEM], inhibition of cAMP accumulation ([1]; HEK293AΔGs, wildtype, relative to serotonin): 68 ± 4%
- Emax [% ± SEM], cAMP accumulation ([2]; HEK293AΔGi/o, wildtype, relative to serotonin): 29 ± 4%
- Emax [% ± SEM], β-arrestin 2 recruitment ([3]; HEK293T with GRK2, wildtype, relative to serotonin): 46 ± 3%

Compound: COc1ccccc1OCCCNCCCOc1ccc2c(c1)NC(=O)CO2 [TA12]
- 5-HT1AR binding relative to ST171 (SAR study) [4]: reduced binding affinity; also recorded: attenuation of binding
- potency and efficacy / receptor activation relative to ST171 (SAR study) [5]: attenuation of binding and receptor activation

Compound: CSc1ccccc1OCCNCCCOc1ccc2c(c1)NC(=O)CO2 [TA48]
- potency and efficacy / receptor activation relative to ST171 (SAR study) [5]: considerable reduction of potency and efficacy

Compound: O=C1CCc2ccc(OCCCCN3CCN(c4cccc(Cl)c4Cl)CC3)cc2N1 [aripiprazole]
- Emax ([1]; read-out: Emax [% ± SEM], inhibition of cAMP accumulation, HEK293AΔGs, wildtype, relative to serotonin): 90 ± 9%
- Emax [2]: < 5%

Compound: O=C1CC2(CCCC2)CC(=O)N1CCCCN1CCN(c2ncccn2)CC1 [buspirone]
- Emax [1, 10]: 58 ± 1%
- Emax [2]: < 5%
- Emax [3]: < 5%

Compound: CN1CC[C@]23c4c5ccc(O)c4O[C@H]2[C@@H](O)C=C[C@H]3[C@H]1C5 [morphine]
- response latency, 52°C hot plate [6]: significantly increased the response latency
- response latency, hot plate in 5-HT1AR KO mice [7]: significantly increased the response latency

Compound: CCCN(CCc1cccs1)[C@H]1CCc2c(O)cccc2C1 [rotigotine, reference compound]
- intact substrate remaining [8]: < 15%

Compound: O=C1Cc2cc(CCN3CCN(c4nsc5ccccc45)CC3)c(Cl)cc2N1 [ziprasidone]
- lower potency compared to ST171, Gi/o pathway ([1]; HEK293AΔGs): more than 70 fold
- EC50 ([1]; HEK293AΔGs, wildtype, read-out: EC50 [nM ± SEM], inhibition of cAMP accumulation): 370 ± 140 nM
- Emax [1, 10]: 57 ± 7%
- Emax [2]: < 5%
- Emax [3]: < 5%

Compound: β-arrestin 2 labeled with the enzyme acceptor (from UniProt P32121 1-409) (natural protein)
- Emax of recruitment with ST171, elevated GRK2 (% of serotonin) [9]: 15%
- Emax of recruitment with ST171, native GRK2 (% of serotonin) [9]: < 5%
